Measured values from patent publication US8501911B2, “Methods of reducing inflammation and mucus hypersecretion” (Biomarck Pharmaceuticals, Ltd, priority 1999, dated 2013).
Residues, ends and D or L forms follow the SMILES beside them. *: point of attachment. Myristoyl = CCCCCCCCCCCCCC(=O)*

Assays:
[1] = test system: NHBE cells; test: Mucin secretion from NHBE cells exposed to kinase activators/reagents alone (ELISA); type: cell-based, human; conditions: 15 min
Method: To determine the potential role of PKC and/or PKG in the mucin secretory process, NHBE cells were exposed to the following two specific protein kinase activators: the phorbol ester, phorbol 12-myristate 13-acetate (PMA), for activation of PKC, and the nonhydrolyzable cGMP analogue, 8-Br-cGMP, for activation of PKG.
NHBE Cell Culture—Expansion, cryopreservation, and culture of NHBE cells in the air/liquid interface were performed as described previously. See, Krunkosky et al. Briefly, NHBE cells (Clonetics, San Diego, Calif.) were seeded in vented T75 tissue culture flasks (500 cells/cm^2) and cultured until cells reached 75-80% confluence. Cells were then dissociated by trypsin/EDTA and frozen as passage-2. Air/liquid interface culture was initiated by seeding passage-2 cells (2×10^4 cells/cm^2) in […]® clear culture inserts (Costar, Cambridge, Mass.) that were thinly coated with rat tail collagen, type 1 (Collaborative Biomedical, Bedford, Mass.). Cells were cultured submerged in medium in a humidified 95% air, 5% CO2 environment for 5-7 days until nearly confluent. At that time, the air/liquid interface was created by removing the apical medium and feeding cells basalaterally. Medium was renewed daily thereafter. Cells were cultured for an additional 14 days to allow for full differentiation.
Measurement of Mucin Secretion by ELISA—Before collection of “base line” and “test” mucin samples, the accumulated mucus at the apical surface of the cells was removed by washing with phosphate-buffered saline, pH 7.2. To collect the base-line secretion, cells were incubated with medium alone, and secreted mucin in the apical medium was collected and reserved. Cells were rested for 24 h and then exposed to medium containing the selected stimulatory and/or inhibitory reagents (or appropriate controls), after which secreted mucin was collected and reserved as the test sample. Incubation times for the base line and the test were the same but varied depending on the test reagent utilized. Both base line and test secretions were analyzed by ELISA using an antibody capture method as known in the art. See, e.g., Harlow et al., Antibodies: A Laboratory Manual, pp. 570-573, Cold Spring Harbor Laboratory, Cold Spring Harbor, N.Y. (1988). The primary antibody for this assay was 17Q2 (Babco, Richmond, Calif.), a monoclonal antibody that reacts specifically with a carbohydrate epitope on human airway mucins. […] Wright et al., Am. J. Physiol. 271, L854-L861 (1996). Levels of mucin secretion were reported as percentage of the medium control.
Mucus secreted from the airway epithelial cells in vitro after stimulation by activators was assessed using an ELISA (antibody capture method) (E. Harlow, D. Lane. “Antibodies: A Laboratory Manual.” New York: Cold Spring Harbor Laboratory Press, 1988), wherein the collected mucus is bound directly to the ELISA plate. Mucus was detected using an antibody raised against monkey airway mucus (Lin et al. Am J Respir Cell Mol Biol 1:41, 1989).

[2] = test system: MARCKS-related mucus secretion; test: Inhibition of MARCKS-related mucus (mucin) secretion, Table 1; type: cell-based; conditions: at 100 μM of test peptide
[3] = test system: HL-60 clone 15 cells; test: Inhibition of eosinophil peroxidase (EPO) release from HL-60 clone 15 cells; type: cell-based, human; conditions: at 50 μM of test peptide; 100 nM PMA 2 hours
From the text: The human promyelocytic cell line (Fischkoff S A, Graded increase in probability of eosinophilic differentiation of HL-60 promyelocytic leukemia cells induced by culture under alkaline conditions. Leuk. Res., 12:679-686, 1988; Rosenberg H F, Ackerman S J, Tenen D G. Human eosinophil cationic protein: molecular cloning of a cytotoxin and helminthotoxin with ribonuclease activity. J. Exp. Med., 170:163-176, 1989), HL-60 clone 15, is eosinophil-like promyelocytic human cell line which was purchased from American Type Culture Collection (ATCC) Rockville, Md. (catalog #CRL-1964). The cells were maintained in medium consisting of RPMI 1640 with glutamine supplemented with 10% heat inactivated fetal bovine serum (Gibco, Carlsbad, Calif.), 50 IU/mL penicillin, 50 μg/mL streptomycin, and 25 mM HEPES buffer, pH 7.8 at 37° C. in an atmosphere containing 5% CO2. Final differentiation of an eosinophil-like phenotype was initiated by culturing the cells at 5×10^5 cells/mL in the above medium containing 0.5 mM butyric acid (Sigma-Aldrich) for 5 days as previously described by Tiffany H L, Li F, and Rosenberg H F, Hyperglycosylation of eosinophil ribonuclease in a promyelocytic leukemia cell line and in differentiated peripheral blood progenitor cells J. Leukoc. Biol. 58: 49-54, 1995; and by Tiffany H L, Alkhatib G, Combadiere C, Berger E A, and Murphy P M., CC Chemokine receptors are differentially regulated by IL-5 during maturation of eosinophilic HL-60 cells. J. Immunol. 160:1385-1392, 1998. The cells were washed and resuspended at 2.5×10^6 per mL in phenol free RPMI-1640 (Cellgro; Mediatech Inc.). Aliquots of cells in 15 mL plastic tubes were preincubated with indicated concentration of test peptide (dissolved in PBS, pH 7.0) for 10 minutes followed by treatment of the cells with 100 nM PMA for 2 hours. The reaction was terminated by placing the tubes on ice and centrifugation of cells at 400 g for 5 min at 4° C. The eosinophil peroxidase (EPO) activity released by HL-60 clone 15 cells was assayed using TMB according to a previously established technique Paige et al (see above) and by Lacy P, Mahmudi-Azer S, Bablitz B, Hagen S C, Velazquez J R, Man S F, Moqbel R. Rapid mobilization of intracellularly stored RANTES in response to interferon-gamma in human eosinophils. Blood 94:23-32, 1999. Briefly, add 50 μL aliquots of the supernatant to 96-well microtiter plate followed by addition of 100 μL of the tetramethylbenzidine (TMB) substrate solution and incubate at room temperature for 15 minutes. The reaction was terminated by addition of 50 μL of 1.0 M sulfuric acid and absorbance was read at 450 nm in a spectrophotometric microplate reader (Molecular Devices, Sunnyvale, Calif.). The amount of secreted EPO was expressed as percentage of total content using the amount obtained in the same number of triton X-100-lysed cells.
Because standard EPO from HL-60 clone 15 cells was not available to use for quantification, we measured both released and intracellular (from lysed cells) levels of EPO, and expressed the released EPO as a percentage of total (intracellular and released) for each. To measure intracellular EPO in HL-60 clone 15 cells, appropriate aliquots of 0.1% triton X-100-lysed cells were taken for quantification of intracellular EPO as described above. All data are expressed as percentage of control to minimize variability between cultures.

[4] = test system: human neutrophils; test: Human neutrophil chemotactic migration assay; type: cell-based; conditions: test peptide 50 μM; for Neutrophil Migration (% Inhibition), LTB4: LTB4 100 nM; for Neutrophil Migration (% Inhibition), LTB4 / Neutrophil Migration (% Inhibition), fMLP: 0 = inactive; for Neutrophil Migration (% Inhibition), PAF: PAF 100 nM; for Neutrophil Migration (% Inhibition), fMLP: fMLP 100 nM
Method: Human neutrophils were isolated from heparinized whole blood collected from healthy adult donors via cephalic venipuncture by a slightly modified method as described by Akasaki et al., 1999 (Akasaki T, Koga H, and Sumimoto H., Phosphoinositide 3-kinase-dependent and -independent activation of the small GTPase Rac2 in human neutrophils, J. Biol. Chem. 274:18055-18059, 1999). The blood was mixed with dextran (final concentration 1.4% dextran) and then allowed to settle for 60 minutes, after which time the leukocyte rich plasma was collected and layered onto 5 mL of Ficoll-Paque PLUS in 15 ml, conical tubes. The plasma was centrifuged at 1800 rpm for 20 minutes at room temperature. The residual erythrocytes were lysed utilizing a hypotonic saline and the remaining neutrophils were re-suspended in Hank's balanced salt solution containing 20 mM HEPES and 8.9 mM sodium bicarbonate without calcium or magnesium (HBSS), yielding neutrophils that were greater than 98% pure and greater than 99% viable.
Neutrophil migration assay was performed according to the method described by Frevert C W, Wong V A, Goodman R B, Goodwin R, and Martin T R., Rapid fluorescence-based measurement of neutrophil migration in vitro, J. Immunol. Methods, 213:41-52, 1998. Human neutrophils were labeled with the fluorescent dye calcein for 30 minutes at room temperature. Cells were then washed and resuspended in a migration buffer containing HBSS with 2% FCS. Cells were treated with buffer alone or with the indicated test peptide (50 μM) for 30 minutes at 37° C. Treated cells (1×10^4 cells) were then placed on the upper side of a ChemoTx® chemotaxis plate (Neuroprobe, Gaithersburg, Md.) membrane (2 μm pore size). Lower wells of the plate were filled with migration buffer alone or with buffer containing fMLP (100 nM), LTB4 (100 nM), or PAF (100 nM). Wells containing 1×10^4 labeled cells were used as standards to calculate migration percentage. Cells were allowed to migrate for 1 hour at 37° C. After incubation, cells on the top of the filter were washed away with PBS. Followed by this, 0.5 mM EDTA was added to the top of the filter for 5 min to detach adherent cells and the membrane was again washed. The plate was then centrifuged at 1000 rpm for 1 min. The filter was removed and the fluorescence was measured in the lower wells (485 nm excitation, 530 nm emission wavelength) using an fMax fluorescence plate reader (Molecular Devices, Sunnyvale, Calif.). Percent migration was determined by dividing the fluorescence of each well by the fluorescence of the standard wells containing 1×10^4 labeled cells. A lesser number of migrated neutrophils in the bottom compartment is indicative of the test peptide being an inhibitor of inflammation.

[5] = Solubility in 0.5 N saline; type: physicochemical; conditions: in 0.5 N Saline at pH 6.5
[6] = test system: U937 cells; test: Inhibition of lysozyme release from U937 cells; type: cell-based, human; conditions: at 50 μM of test peptide; 100 nM PMA
Method: U937 is a monocyte-like human cell line which was purchased from American Type Culture Collection (ATCC) Rockville, Md. (catalog #CRL-15932). The cells were maintained in medium consisting of RPMI 1640 with glutamine supplemented with 10% heat inactivated fetal bovine serum (Gibco, Carlsbad, Calif.), 50 IU/mL, penicillin, 50 μg/mL streptomycin at 37° C. in an atmosphere containing 5% CO2. U937 cells were washed and resuspended at 2.5×10^6 cells/mL in phenol red free RPMI-1640 medium (Cellgro, Mediatech Inc.). Aliquots of cells in 15 mL plastic tubes were preincubated with indicated concentrations of test peptides (dissolved in PBS, pH 7.0) for 10 min at 37° C. The cells were then stimulated with 100 nM PMA for 1 hour. The cells were then centrifuged at 400×g for 5 min at 4° C. Lysozyme released from U937 cells was measured using spectrophotometric assay as described previously by Ralph et al., 1976. (Ralph P, Moore M A S, and Nilsson K. Lysozyme synthesis by established human and murine histocytic lymphoma cell lines. J. Exp. Med. 143:1528-33, 1976). Briefly. 100 μL of supernatants were placed in a 96-well microtiter plate and mixed with 100 μL of a Micrococcus lysodeikticus (Sigma-Aldrich) suspension (0.3 mg/mL in 0.1 M sodium phosphate buffer, pH 7.0), incubated for […] at room temperature and decrease in absorbance at 450 nm was measured. Chicken egg white lysozyme (EMD Biosciences) was used as a standard.

SMILES: CCCCCCCCCCCCCC(=O)O[C@@H]1[C@@H](C)[C@@]2(O)[C@@H](C=C(CO)C[C@@]3(O)C(=O)C(C)=C[C@@H]23)[C@@H]2C(C)(C)[C@]12OC(C)=O [4-alpha-PMA]
- Mucin secretion as percent of control ([1]; reagent 100 nM alone): 104%

SMILES: Nc1nc2c(nc(Br)n2[C@@H]2O[C@@H]3COP(O)(=S)O[C@H]3[C@H]2O)c(=O)[nH]1 (some centres unmarked) [Rp-8-Br-cGMP]
- Mucin secretion as percent of control ([1]; reagent 1 μM alone): 100%
- Mucin secretion as percent of control ([1]; reagent 1 μM together with PMA 100 nM): 123%

SMILES: CCCCCCCCCCCCCC(=O)NCC(=O)N[C@@H](C)C(=O)N[C@@H](CCC(N)=O)C(=O)N[C@@H](Cc1ccccc1)C(=O)N[C@@H](CO)C(=O)N[C@@H](CCCCN)C(=O)N[C@H](C(=O)N[C@@H](C)C(=O)N[C@@H](C)C(=O)N[C@@H](CCCCN)C(=O)NCC(=O)N[C@@H](CCC(=O)O)C(=O)N[C@@H](C)C(=O)N[C@@H](C)C(=O)N[C@@H](C)C(=O)N[C@@H](CCC(=O)O)C(=O)N[C@@H](CCCNC(=N)N)C(=O)N1CCC[C@H]1C(=O)NCC(=O)N[C@@H](CCC(=O)O)C(=O)O)[C@@H](C)O [SEQ ID NO: 5] (Myristoyl-GAQFSKTAAKGEAAAERPGE-OH; C-terminus assumed)
- % Inhibition Mucin [2]: 77%
- % Inhibition EPO [3]: 33.6%
- Neutrophil Migration (% Inhibition), LTB4 [4]: 76.8%
- Neutrophil Migration (% Inhibition), PAF [4]: 88.4%
- Neutrophil Migration (% Inhibition), fMLP [4]: 69.1%
- solubility [5]: < 5 mg/mL
- % Inhibition Lysozyme [6]: 99%

SMILES: CCCCCCCCCCCCCC(=O)NCC(=O)N[C@@H](C)C(=O)N[C@@H](CCC(N)=O)C(=O)N[C@@H](Cc1ccccc1)C(=O)N[C@@H](CO)C(=O)N[C@@H](CCCCN)C(=O)N[C@H](C(=O)N[C@@H](C)C(=O)N[C@@H](C)C(=O)N[C@@H](CCCCN)C(=O)NCC(=O)N[C@@H](CCC(=O)O)C(=O)N[C@@H](C)C(=O)N[C@@H](C)C(=O)N[C@@H](C)C(=O)N[C@@H](CCC(=O)O)C(=O)O)[C@@H](C)O [SEQ ID NO: 9, N-myristoyl-GAQFSKTAAKGEAAAE] (Myristoyl-GAQFSKTAAKGEAAAE-OH; C-terminus assumed)
- % Inhibition Mucin [2]: 68%
- % Inhibition EPO [3]: 30.3%
- Neutrophil Migration (% Inhibition), LTB4 [4]: 90.3%
- Neutrophil Migration (% Inhibition), PAF [4]: 72.7%
- Neutrophil Migration (% Inhibition), fMLP [4]: 84.8%
- solubility [5]: > 2 mg/mL
- % Inhibition Lysozyme [6]: 99%
